The values that follow come from US5283372A, “Preparation of purified optical isomers of desflurane” (Anaquest, Inc., priority 1993, dated 1994).

Entries after “also recorded” stand apart in the source; their conditions may differ.

Assay [1] deals with Male Swiss-Webster mice (loss of righting). In words: Loss of righting (LOR) in mice: potency, onset and recovery of inhaled anesthetic. The assay is classed as in vivo, mouse (Swiss-Webster). The conditions noted are these: mouse; for Recovery (mean time to ambulation) / Onset (mean time to LOR): at the EC50 concentration; for Onset (mean time to LOR): six animals; for EC50 (loss of righting): inhalation in 1900 ml container flushed with 100% oxygen, LOR within two minutes and supine for thirty seconds, * significant at P<0.05. The protocol: Male Swiss-Webster mice, about 22-25 g, were allowed free access to food and water and housed ten to a cage in a temperature (22.2°) and humidity (50%) controlled vivarium with a twelve hour light-dark cycle.
The test anesthetic was pipetted into a 1900 ml container previously flushed for one minute with 100% oxygen. The container was sealed, rotated to insure complete evaporation of test compound and allowed to stand for five minutes. The approximate concentration of the anesthetic was calculated. Six animals were tested at each concentration of racemate and its purified optical isomers. The animals were placed in the container in groups of three. The container was rotated periodically.
The percentage of mice to lose their righting ability within two minutes and remain supine for thirty seconds was noted. Loss of righting (LOR) at four concentrations, including EC0 and EC100, were used to determine the EC50. Subsequently, onset (defined as the mean time for six animals to LOR) and recovery (defined as the mean time to ambulation) were determined at the EC50 concentration. Potency (defined by the dose-response curve) of each compound was compared using a parallel line analysis. Onset and recovery means were compared using a Student's T-Test P<0.05. The results are reported in Table I. In the Table, "S.D." is standard deviation, "C.L." is confidence level and "EC50 " is the effective concentration in one half of the animals tested.

The test system of assay [2] is Male Sprague-Dawley rats (loss of righting). In words: Loss of righting (LOR) in rats: onset and recovery at EC100. Conditions: rat; for Recovery (of righting): EC100 concentration, removed five minutes after LOR; for Onset of LOR: at EC100 concentration, five rats per anesthetic. The assay is classed as in vivo, rat (Sprague-Dawley). The protocol: (§1) Male Sprague-Dawley rats were maintained as were the mice in Example 7. The animals were trained to maintain their balance for ninety seconds on a rotarod revolving at 10 rpm. The animals were allowed to rest five minutes and again trained to remain on the rotating rotarod for ninety seconds.
(§2) The rats were individually placed into containers which had been purged with 100% oxygen for one minute, and which contained a known concentration of racemic desflurane, or its positive isomer or negative isomer which had been previously determined to be equal to the EC100. Five rats were utilized for each anesthetic.
The onset of LOR was recorded for each animal. The animals remained in the container for five minutes following LOR, and were then removed. Recovery was determined, and the mean calculated.
Onset and recovery were compared across anesthetics using a Student's T Test.

The subject of assay [3] is Male Sprague-Dawley rats (recovery of motor coordination). Kind of assay: Rotarod testing in rats after recovery of righting (Rotarod Index). Conditions: for Rotarod Index (ROI): ROI=(First+Second×2/3+Third×1/3)/3, average time on rod in seconds at 0, 90, 180 seconds after recovery of righting, maximum 60, rotarod 10 rpm. The assay is classed as in vivo, rat (Sprague-Dawley). The protocol: as §1, §2
Following recovery of righting, the animals were placed on the rotarod 0, 90, and 180 seconds thereafter and the length of time they were able to remain on the rod was recorded in each instance. Animals that remained on the rod for a full ninety seconds were not subsequently tested. The durations of maintaining balance were noted and averaged, and the number of animals meeting the ninety second criterion were recorded at each time interval.
A Rotarod Index (ROI) was then calculated according to the following formula.
ROI=(First+Second×2/3+Third×1/3)/3 where First, Second and Third are the average time on the rod in seconds for the respective time intervals. Animals remaining on the rod for the full ninety seconds during either the interval beginning at zero time or ninety seconds were scored with ninety seconds for all subsequent intervals. Therefore, the maximum ROI attainable was […]. The ROI value measures the recovery of motor coordination following drug-induced LOR.
Background: In the rotarod test animals must keep their balance on a rotating rod.

With `FC(F)OC(F)C(F)(F)F` (single isomer, unassigned; (+)) [Positive Isomer, (+)-2-(difluoromethoxy-1,1,1,2-tetrafluoroethane], in assay [1], the “Recovery (mean time to ambulation)” value stood at 0.31 min, the “Onset (mean time to LOR)” value is 1.44 min and the “EC50 (loss of righting)” value came to 4.1%. For the same compound, the “Potency (in words)” value in assay [1] (highly purified positive isomer, comparison with negative isomer or racemate, listed as positive isomer of desflurane) is listed as “greater potency; also recorded: improved potency”. Besides, in assay [2], the “Recovery (of righting)” value is 0.88 min and the “Onset of LOR” value was determined as 0.92 min. Moreover, the “Rotarod test / time to become "street fit" (in words)” value in assay [3] (comparison with racemate and negative isomer) is “clearly superior in the rotarod test; also recorded: superior to the racemate and the negative isomer in terms of the time in which a patient would become "street fit"”. In addition, in assay [3] (rat), the “Rotarod Index (ROI)” value is reported as 38.6. The “ROI value (in words)” value in assay [3] (rat, comparison of isomers) was “larger ROI value”.
In the case of `FC(F)OC(F)C(F)(F)F` (racemic) [Racemic Desflurane, 2-(difluoromethoxy)-1,1,1,2-tetrafluoroethane, reference compound], in assay [1], the “Recovery (mean time to ambulation)” value is listed as 0.12 min, the “Onset (mean time to LOR)” value was determined as 1.72 min and the “EC50 (loss of righting)” value amounted to 4.75%. Also, in assay [2], the “Recovery (of righting)” value is 1.38 min and the “Onset of LOR” value was 1.04 min. Besides, the “Rotarod Index (ROI)” value in assay [3] (rat) is 32.4.
In the case of `FC(F)OC(F)C(F)(F)F` (single isomer, unassigned; (-)) [Negative Isomer, (-)-2-(difluoromethoxy)-1,1,1,2-tetrafluoroethane], in assay [1], the “Recovery (mean time to ambulation)” value was determined as 0.25 min, the “Onset (mean time to LOR)” value amounted to 1.05 min and the “EC50 (loss of righting)” value was 4.6%. In assay [2], the “Recovery (of righting)” value was 0.31 min and the “Onset of LOR” value is 1.05 min. Further, the “Recovery time (in words)” value in assay [2] (comparison of isomers) is “faster recovery time”. Besides, the “Rotarod Index (ROI)” value in assay [3] (rat) was 28.8.
